Measured values taken from PMC11783063, “Design, synthesis, and apoptotic antiproliferative action of new benzimidazole/1,2,3-triazole hybrids as EGFR inhibitors” (Frontiers in Chemistry, 2025).

Legend:
[1] = system: A-549 (lung cancer cell line); assay: Antiproliferative assay, A-549; assay type: cell-based, human; conditions: Homo sapiens, A549; read-out: Antiproliferative activity IC50 ± SEM, A-549
Excerpt: (§1) Refer to Supplementary Appendix A for more information.
(§2) DMSO (0.1%) was used as control.

[2] = Cell viability assay (MTT) on MCF-10A normal cells; conditions: human, MCF-10A normal mammary gland epithelial cells
Description: (§3) The medium in which cells were propagated contained Dulbecco's modified Eagle's medium (DMEM)/ Ham's F-12 medium (1:1) supplemented with epidermal growth factor (20 ng/mL), hydrocortisone (500 ng/mL), insulin (10 μg/mL), 2 mM glutamine and 10% foetal calf serum. After every 2-3 days, the cells were passed using trypsin ethylenediamine tetra acetic acid (EDTA). The cells were seeded at a density of 10^4 cells mL^-1 in flat-bottomed culture plates containing 96 wells each. After 24 h, medium was removed from the plates and the compounds in (in 0.1% DMSO) were added (in 200 μL medium to yield a final concentration of 0.1% v/v) to the wells of plates. A single compound was designated with four wells followed by incubation of plates for 96h at 37°C. After incubation, medium was removed completely from the plates followed by addition of MTT (0.4 mg/mL in medium) to each well and subsequent incubation of plates for 3h. MTT (along with the medium) was removed and DMSO (150μL) was added to each well of the culture plates, followed by vortexing and subsequent measurement of absorbance (at 540 nm) using microplate reader.

[3] = system: MCF-10A normal human mammary gland epithelial cell line; assay: Cell viability assay (MTT) on MCF-10A normal cells; conditions: dose of 50 μM
Description: as §3

[4] = system: four human cancer cell lines (HT-29, A-549, MCF-7, Panc-1); assay: Antiproliferative assay, mean over four cancer cell lines (GI50); conditions: Homo sapiens, read-out: Average IC50 (GI50)
Description: To calculate the total nuclear DNA, a fluorescent dye (propidium iodide, PI) is used which can attach to the DNA, thus offering a quick and precise technique. PI cannot pass through the cell membrane and its signal intensity can be considered as directly proportional to quantity of cellular DNA. Cells whose cell membranes are damaged or have changed permeability are counted as dead ones. […] The medium was removed; the compounds were added to the plates at 10 µM concentrations (in 0.1% DMSO) in triplicates, followed by incubation for 48 h. DMSO (0.1%) was used as control. After incubation, medium was removed followed by the addition of PI (25 µl, 50µg/mL in water/medium) to each well of the plates. At -80 °C, the plates were allowed to freeze for 24 h, followed by thawing at 25 °C. A fluorometer (Polar-Star BMG Tech) was used to record the readings at excitation and emission wavelengths of 530 and 620 nm for each well. The percentage cytotoxicity of compounds was calculated using the following formula:

Bax = Bax activation assay in MCF-7 cells; assay type: cell-based, human; conditions: for Bax Conc: compound at its IC50; for Bax Fold change: vs untreated control
Description: The current study supplied compounds 6i and 10e to breast (MCF-7) cancer cell lines at their respective IC50 values. This led to a notable elevation of pro-apoptotic Bax expression, with a fold increase of 34 for compound 6i and 36 for compound 10e.
Compounds 6i and 10e were assessed for their ability to activate caspase-3, caspase-8, and Bax, as well as to downregulate the anti-apoptotic protein Bcl2 in the MCF-7 breast cancer cell line ([Abdelbaset et al., 2019]). Supplementary Appendix A provides more details.
Bring all reagents, except the human Bax-α Standard, to room temperature for at least 30 minutes prior to opening. The human Bax-α Standard solution should not be left at room temperature for more than 10 minutes. All standards, controls and samples should be run in duplicate. Refer to the Assay Layout Sheet to determine the number of wells to be used and put any remaining wells with the desiccant back into the pouch and seal the ziploc. Store unused wells at 4 °C. Pipet 100 μL of Assay Buffer into the S0 (0 pg/mL standard) wells. Pipet 100 μL of Standards #1 through #6 into the appropriate wells. Pipet 100 μL of the Samples into the appropriate wells. Tap the plate gently to mix the contents. Seal the plate and incubate at room temperature on a plate shaker for 1 hour at ~500 rpm. Empty the contents of the wells and wash by adding 400 μL of wash solution to every well. Repeat the wash 4 more times for a total of 5 washes. After the final wash, empty or aspirate the wells and firmly tap the plate on a lint free paper towel to remove any remaining wash buffer. Pipet 100 μL of yellow Antibody into each well, except the Blank. Seal the plate and incubate at room temperature on a plate shaker for 1 hour at ~500 rpm. Empty the contents of the wells and wash by adding 400 μL of wash solution to every well. Repeat the wash 4 more times for a total of 5 washes. After the final wash, empty or aspirate the wells and firmly tap the plate on a lint free paper towel to remove any remaining wash buffer. Add 100 μL of blue Conjugate to each well, except the Blank. Seal the plate and incubate at room temperature on a plate shaker for 30 minutes at ~500 rpm. Empty the contents of the wells and wash by adding 400 μL of wash solution to every well. Repeat the wash 4 more times for a total of 5 washes. After the final wash, empty or aspirate the wells and firmly tap the plate on a lint free paper towel to remove any remaining wash buffer. Pipet 100 μL of Substrate Solution into each well. Incubate for 30 minutes at room temperature on a plate shaker at ~500 rpm. Pipet 100 μL Stop Solution to each well. Blank the plate reader against the Blank wells, read the optical density at 450 nm. Calculate the average net Optical Density (OD) bound for each standard and sample by subtracting the average Blank OD from the average OD for each standard and sample. Using linear graph paper, plot the Average Net OD for each standard versus Bax concentration in each standard. Approximate a straight line through the points. The concentration of Bax in the unknowns can be determined by interpolation.

EGFR = EGFR (Homo sapiens, UniProt P00533); assay: EGFR-TK inhibitory assay
EGFR, sequence (P00533 669-1210): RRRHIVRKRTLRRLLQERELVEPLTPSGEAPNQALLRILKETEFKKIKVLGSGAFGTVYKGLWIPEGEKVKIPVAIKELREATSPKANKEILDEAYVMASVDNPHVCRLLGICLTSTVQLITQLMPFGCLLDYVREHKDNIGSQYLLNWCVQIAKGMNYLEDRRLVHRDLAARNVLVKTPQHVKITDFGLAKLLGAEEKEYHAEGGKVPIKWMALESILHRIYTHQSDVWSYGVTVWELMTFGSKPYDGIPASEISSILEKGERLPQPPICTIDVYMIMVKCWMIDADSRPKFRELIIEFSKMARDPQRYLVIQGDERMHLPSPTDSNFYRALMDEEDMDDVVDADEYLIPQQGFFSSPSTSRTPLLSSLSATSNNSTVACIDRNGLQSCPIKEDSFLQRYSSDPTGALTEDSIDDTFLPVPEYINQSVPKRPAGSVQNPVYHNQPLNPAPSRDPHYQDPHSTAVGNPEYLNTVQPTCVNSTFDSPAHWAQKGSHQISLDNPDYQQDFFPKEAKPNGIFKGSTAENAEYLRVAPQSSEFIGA
Description: To record autophosphorylation level, EGFR kinase assay was carried out on the basis of DELFIA/Time-Resolved Fluorometry. […] Each compound (10 µL) was incubated with recombinant enzyme (10 µL, 5 ng for EGFR, 1:80 dilution in 100 mM HEPES) for 10 min at 25 °C, subsequent to the addition of 5X buffer (10 µL, containing 2 mM MnCl2, 100 µM Na3VO4, 20 mM HEPES and 1 mM DTT) and ATP-MgCl2 (20 µL, containing 0.1 mM ATP and 50 mM MgCl2) and incubation for 1h. The negative and positive controls were included in each plate by the incubation of enzyme either with or without ATP-MgCl2. The liquid was removed after incubation and the plates were washed thrice using wash buffer. Europium-tagged antiphosphotyrosine antibody (75 µL, 400 ng) was added to each well followed by incubation of 1h and then washing of the plates using buffer. […] The autophosphorylation percentage inhibition by compounds was calculated using the following equation:

[5] = system: Panc-1 (pancreatic cancer cell line); assay: Antiproliferative assay, Panc-1; assay type: cell-based, human; conditions: Homo sapiens, PANC-1; read-out: Antiproliferative activity IC50 ± SEM, Panc-1
Excerpt: as §1, §2

| SMILES | IC50 [1] | viability at 4 days, 50 µM [2] | Impact on non-tumor cells MCF-10A [3] | IC50 [4] | Bax Conc (Bax) | Bax Fold change (Bax) | IC50 (EGFR) | IC50 [5] |
| --- | --- | --- | --- | --- | --- | --- | --- | --- |
| O=[N+]([O-])c1cccc(-n2cc(Cn3c(SCc4ccccc4)nc4ccccc43)nn2)c1 [10e] | 26 ± 2 nM | 90% | no impact | 25 nM | 325 ± 3 pg/mL | 36 | 73 ± 4 nM | 26 ± 2 nM |
| NS(=O)(=O)c1ccc(-n2cc(CSc3nc4ccccc4[nH]3)nn2)cc1 [6i, 4-(4-(((1H-benzimidazol-2-yl)thio)methyl)-1H-1,2,3-triazol-1-yl)benzene-sulfonamide] | 30 ± 2 nM | 90% | no impact | 29 nM | 310 ± 3 pg/mL | 34 | 78 ± 5 nM | 28 ± 2 nM |
